Experiments:
Flag-LRRK2[G2019S] = molecular target: T1, Flag-LRRK2[G2019S] (Homo sapiens, UniProt Q5S007, G2019S); test: IC50 LRRK2 Nictide assay, G2019S; type: biochemical; details: IC50 LRRK2 G2019S (100 µM ATP), Nictide peptide substrate, value ± SD
T1 construct: towards full length wild type and G2019S pathogenic LRRK2 mutant in a biochemical assay; Flag (N); purchased ThermoFisher Scientific A15201

[1] = test system: Dundee panel of 140 protein kinases; test: Kinase profiling; type: biochemical
Source text: […] Results for each kinase are presented as the mean kinase activity ±S.D. for an assay undertaken in duplicate relative to a control kinase assay in which the inhibitor was omitted. Abbreviations and assay conditions used for each kinase are available (http://www.kinase-screen.mrc.ac.uk/services/premier-screen).

Rab10 phosphorylation = Rab10 phosphorylation in primary human neutrophils; type: cell-based; details: primary human neutrophils from two donors, 45 min
Method: Cell extracts were mixed with a quarter of a volume of NuPage LDS Sample buffer 4× Invitrogen and heated at 95°C for 5 min. […] At the end of electrophoresis, proteins were electrophoretically transferred onto the nitrocellulose membrane (GE Healthcare, Amersham Protran Supported 0.45 µm NC) at 100 V for 90 min on ice in the transfer buffer (48 mM Tris–HCl and 39 mM glycine supplemented with 20% methanol). Transferred membrane was blocked with 5% (w/v) skim milk powder dissolved in TBS-T [20 mM Tris–HCl, pH 7.5, 150 mM NaCl and 0.1% (v/v) Tween 20] at room temperature for 1 h. The membrane was typically cropped into three pieces, namely the ‘top piece’ (from the top of the membrane to 75 kDa), the ‘middle piece’ (between 75 and 30 kDa) and the ‘bottom piece’ (from 30 kDa to the bottom of the membrane). All primary antibodies were used at 1 μg/ml final concentration and incubated in TBS-T containing 5% (by mass) bovine serum albumin with exception of α-tubulin and GAPDH antibodies that were diluted 1 : 5000 and 1 : 2000, respectively. The top piece was incubated with the indicated rabbit anti-LRRK2 phosphorylation site antibody multiplexed with mouse anti-LRRK2 C-terminus total antibody. […] Protein bands were acquired via near infrared fluorescent detection using the Odyssey CLx imaging system and quantified using the Image Studio software. […]

T1 sequence (Q5S007 whole entry G2019S): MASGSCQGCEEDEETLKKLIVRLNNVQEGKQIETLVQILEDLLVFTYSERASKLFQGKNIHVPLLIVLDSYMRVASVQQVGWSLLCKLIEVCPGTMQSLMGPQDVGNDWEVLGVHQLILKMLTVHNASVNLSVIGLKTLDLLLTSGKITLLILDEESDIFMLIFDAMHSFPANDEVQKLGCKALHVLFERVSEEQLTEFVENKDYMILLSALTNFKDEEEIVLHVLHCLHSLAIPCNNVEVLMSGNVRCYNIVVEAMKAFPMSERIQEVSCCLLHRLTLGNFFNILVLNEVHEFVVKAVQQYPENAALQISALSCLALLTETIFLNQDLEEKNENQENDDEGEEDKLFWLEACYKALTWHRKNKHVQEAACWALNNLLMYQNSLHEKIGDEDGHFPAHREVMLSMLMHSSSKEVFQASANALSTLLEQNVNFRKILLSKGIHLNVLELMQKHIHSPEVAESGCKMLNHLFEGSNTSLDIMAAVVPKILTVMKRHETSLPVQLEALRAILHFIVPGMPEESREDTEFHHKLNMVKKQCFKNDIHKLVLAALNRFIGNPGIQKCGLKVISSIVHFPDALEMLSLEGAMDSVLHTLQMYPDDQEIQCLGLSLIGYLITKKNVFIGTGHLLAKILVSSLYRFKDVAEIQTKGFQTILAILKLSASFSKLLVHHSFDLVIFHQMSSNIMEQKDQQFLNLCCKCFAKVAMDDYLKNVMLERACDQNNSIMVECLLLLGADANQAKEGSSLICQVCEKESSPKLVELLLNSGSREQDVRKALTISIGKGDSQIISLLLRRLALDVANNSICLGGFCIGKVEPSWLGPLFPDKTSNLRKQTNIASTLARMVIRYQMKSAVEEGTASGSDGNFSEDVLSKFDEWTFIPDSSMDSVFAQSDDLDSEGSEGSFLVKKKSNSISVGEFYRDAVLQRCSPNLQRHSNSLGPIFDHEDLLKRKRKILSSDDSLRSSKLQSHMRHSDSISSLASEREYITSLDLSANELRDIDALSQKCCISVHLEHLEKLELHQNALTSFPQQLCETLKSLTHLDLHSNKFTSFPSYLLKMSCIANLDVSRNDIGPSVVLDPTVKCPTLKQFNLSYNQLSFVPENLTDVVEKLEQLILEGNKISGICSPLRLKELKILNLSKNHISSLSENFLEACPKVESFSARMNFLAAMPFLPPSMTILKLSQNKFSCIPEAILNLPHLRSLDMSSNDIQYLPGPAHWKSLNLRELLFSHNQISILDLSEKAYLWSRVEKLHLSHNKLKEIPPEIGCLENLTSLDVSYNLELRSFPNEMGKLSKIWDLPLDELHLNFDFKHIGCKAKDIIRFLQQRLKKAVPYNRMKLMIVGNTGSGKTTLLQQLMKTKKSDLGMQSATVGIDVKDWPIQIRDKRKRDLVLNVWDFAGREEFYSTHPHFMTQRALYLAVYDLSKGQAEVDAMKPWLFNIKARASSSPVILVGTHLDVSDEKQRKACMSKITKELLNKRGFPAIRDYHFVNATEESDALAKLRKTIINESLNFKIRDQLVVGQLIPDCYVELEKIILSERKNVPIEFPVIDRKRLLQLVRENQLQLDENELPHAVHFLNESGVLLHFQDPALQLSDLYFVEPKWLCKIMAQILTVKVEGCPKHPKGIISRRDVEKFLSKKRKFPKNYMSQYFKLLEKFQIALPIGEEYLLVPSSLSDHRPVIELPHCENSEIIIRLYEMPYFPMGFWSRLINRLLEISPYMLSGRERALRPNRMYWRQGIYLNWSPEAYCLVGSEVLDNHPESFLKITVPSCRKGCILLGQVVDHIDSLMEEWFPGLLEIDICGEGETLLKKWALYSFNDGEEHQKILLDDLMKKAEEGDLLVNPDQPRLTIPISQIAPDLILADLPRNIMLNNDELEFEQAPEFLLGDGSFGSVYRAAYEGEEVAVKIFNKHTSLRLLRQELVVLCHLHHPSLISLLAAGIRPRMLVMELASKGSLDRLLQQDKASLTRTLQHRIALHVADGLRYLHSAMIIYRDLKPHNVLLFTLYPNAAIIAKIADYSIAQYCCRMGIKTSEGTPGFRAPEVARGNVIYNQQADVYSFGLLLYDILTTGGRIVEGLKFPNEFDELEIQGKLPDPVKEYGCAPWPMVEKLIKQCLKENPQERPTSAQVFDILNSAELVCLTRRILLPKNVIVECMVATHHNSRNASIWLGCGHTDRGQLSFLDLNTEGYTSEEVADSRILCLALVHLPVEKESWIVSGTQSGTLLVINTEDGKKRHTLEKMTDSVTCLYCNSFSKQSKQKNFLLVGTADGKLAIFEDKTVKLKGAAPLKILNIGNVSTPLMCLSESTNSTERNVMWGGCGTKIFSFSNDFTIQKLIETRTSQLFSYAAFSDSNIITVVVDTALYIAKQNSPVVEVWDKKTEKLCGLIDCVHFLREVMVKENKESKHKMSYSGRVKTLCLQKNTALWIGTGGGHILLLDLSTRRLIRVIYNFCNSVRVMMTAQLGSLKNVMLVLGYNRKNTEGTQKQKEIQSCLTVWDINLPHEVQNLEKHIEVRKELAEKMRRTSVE

With `Cc1ccc(C(=O)Nc2ccc(CN3CCN(C)CC3)c(C(F)(F)F)c2)cc1C#Cc1cnc2[nH]ncc2c1` [GZD-824] the IC50 (Flag-LRRK2[G2019S]) was 80 nM, the “number of the 140 kinases assayed suppressed by over 80%” value ([1]; 0.1 μM inhibitor) was 22 and the “number of the 140 kinases assayed suppressed by over 80%” value ([1]; 1 μM inhibitor) was 43. For the same compound, the “concentration giving maximal inhibition of Rab10 phosphorylation” value (Rab10 phosphorylation) was 300 nM.

— article PMC8589421, “Impact of Type II LRRK2 inhibitors on signaling and mitophagy” (Biochemical Journal, 2021)
